From ChEMBL document CHEMBL5505949, “Synthesis and clinical application of small-molecule inhibitors of Janus kinase” (Eur J Med Chem, 2023) come the findings set out here.

For assay [1], the target named is T1, Tyrosine-protein kinase JAK2 (Homo sapiens, UniProt O60674). The experiment in a line: Inhibition of JAK2 (unknown origin).
The target in assay [2] is T1, Tyrosine-protein kinase JAK2. The experiment in a line: Inhibition of wild type JAK2 (unknown origin).
Assay [3] concerns the target Tyrosine-protein kinase JAK2 (Homo sapiens, UniProt O60674, V617F). The experiment in a line: Inhibition of JAK2 V617F mutant (unknown origin).
For assay [4], the target named is T2, Tyrosine-protein kinase JAK3 (Homo sapiens, UniProt P52333).
T2 sequence (P52333 whole entry): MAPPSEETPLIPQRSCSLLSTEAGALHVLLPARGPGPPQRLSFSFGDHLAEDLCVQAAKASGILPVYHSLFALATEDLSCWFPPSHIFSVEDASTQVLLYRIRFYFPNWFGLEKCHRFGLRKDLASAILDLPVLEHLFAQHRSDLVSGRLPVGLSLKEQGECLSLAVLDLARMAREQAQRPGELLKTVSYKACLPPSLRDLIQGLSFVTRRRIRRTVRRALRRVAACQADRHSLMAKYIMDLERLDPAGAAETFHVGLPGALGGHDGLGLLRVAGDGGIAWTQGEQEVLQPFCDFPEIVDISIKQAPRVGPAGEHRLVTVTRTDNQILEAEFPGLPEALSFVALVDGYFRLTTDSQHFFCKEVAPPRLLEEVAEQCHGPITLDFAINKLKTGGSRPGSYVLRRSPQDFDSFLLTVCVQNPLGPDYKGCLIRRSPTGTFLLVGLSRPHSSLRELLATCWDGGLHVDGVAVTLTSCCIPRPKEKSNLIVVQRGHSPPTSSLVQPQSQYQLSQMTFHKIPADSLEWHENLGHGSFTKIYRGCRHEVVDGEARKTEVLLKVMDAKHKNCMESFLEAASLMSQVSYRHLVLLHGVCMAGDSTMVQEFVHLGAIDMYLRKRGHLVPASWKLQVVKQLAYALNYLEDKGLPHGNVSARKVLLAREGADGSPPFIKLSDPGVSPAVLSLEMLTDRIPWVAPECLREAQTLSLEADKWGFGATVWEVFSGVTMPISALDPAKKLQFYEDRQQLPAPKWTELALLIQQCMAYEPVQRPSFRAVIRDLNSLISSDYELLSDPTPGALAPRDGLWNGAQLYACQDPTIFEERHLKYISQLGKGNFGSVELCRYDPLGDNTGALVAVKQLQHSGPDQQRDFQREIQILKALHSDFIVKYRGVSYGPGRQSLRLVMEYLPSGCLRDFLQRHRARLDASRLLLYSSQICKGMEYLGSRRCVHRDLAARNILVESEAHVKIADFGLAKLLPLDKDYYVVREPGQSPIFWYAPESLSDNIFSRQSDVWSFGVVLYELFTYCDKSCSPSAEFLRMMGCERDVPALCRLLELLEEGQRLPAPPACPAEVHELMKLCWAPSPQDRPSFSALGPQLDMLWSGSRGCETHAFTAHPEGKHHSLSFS
The experiment in a line: Inhibition of JAK3 (unknown origin).

T1 sequence (O60674 whole entry): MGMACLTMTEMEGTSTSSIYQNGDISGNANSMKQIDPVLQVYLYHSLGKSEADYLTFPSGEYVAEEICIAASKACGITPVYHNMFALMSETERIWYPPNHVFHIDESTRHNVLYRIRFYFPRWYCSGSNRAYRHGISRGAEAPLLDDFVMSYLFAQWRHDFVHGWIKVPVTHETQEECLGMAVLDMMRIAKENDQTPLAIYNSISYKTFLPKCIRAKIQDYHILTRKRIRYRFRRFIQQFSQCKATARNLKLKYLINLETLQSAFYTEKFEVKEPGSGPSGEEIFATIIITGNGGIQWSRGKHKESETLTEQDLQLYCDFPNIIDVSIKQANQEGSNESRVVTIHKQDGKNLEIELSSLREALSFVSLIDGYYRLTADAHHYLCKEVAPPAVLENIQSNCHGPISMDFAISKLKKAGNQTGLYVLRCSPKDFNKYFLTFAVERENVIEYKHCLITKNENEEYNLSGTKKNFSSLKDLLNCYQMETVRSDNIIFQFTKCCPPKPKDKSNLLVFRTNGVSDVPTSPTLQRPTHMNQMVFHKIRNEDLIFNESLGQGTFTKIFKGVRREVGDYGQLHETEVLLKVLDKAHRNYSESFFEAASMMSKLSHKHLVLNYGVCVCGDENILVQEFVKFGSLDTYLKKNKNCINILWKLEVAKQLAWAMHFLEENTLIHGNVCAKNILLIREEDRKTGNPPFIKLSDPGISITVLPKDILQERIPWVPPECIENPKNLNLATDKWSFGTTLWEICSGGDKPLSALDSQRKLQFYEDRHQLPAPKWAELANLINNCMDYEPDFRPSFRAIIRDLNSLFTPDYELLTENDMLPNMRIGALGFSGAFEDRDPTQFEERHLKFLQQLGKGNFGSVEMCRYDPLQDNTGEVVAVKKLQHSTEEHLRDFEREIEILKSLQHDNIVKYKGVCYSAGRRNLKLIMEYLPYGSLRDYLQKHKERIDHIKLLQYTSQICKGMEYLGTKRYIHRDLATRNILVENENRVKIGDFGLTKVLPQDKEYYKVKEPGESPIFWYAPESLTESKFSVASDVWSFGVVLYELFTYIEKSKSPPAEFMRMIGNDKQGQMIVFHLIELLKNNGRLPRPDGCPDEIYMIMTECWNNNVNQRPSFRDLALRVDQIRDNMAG
Tyrosine-protein kinase JAK2 (Homo sapiens, UniProt O60674, V617F), sequence (O60674 whole entry V617F): as the sequence (O60674 whole entry) above, with V617F counted along it

As usually defined, the IC50 is the concentration that inhibits the measured activity by half. A lower IC50 goes with greater potency. As for `Cc1cc(Nc2cc(CN3CCOCC3)c3nc(C)c(Cc4ccc(Cl)cc4F)n3n2)n[nH]1` [GANDOTINIB], the IC50 amounted to 68 nM in assay [1], 2260 nM in assay [2] and 55 nM in assay [3].

On to `COc1nn(C)cc1Nc1nccc(-c2c[nH]c3c(NC(=O)[C@@H](C)N4CCN(C)CC4)cccc23)n1` [GOLIDOCITINIB], for which the results for the IC50 in assay [1] and in assay [4] were 14700 nM and 30000 nM, respectively.
